Test results: patent US20060241084A1, “Inhibition of vascular endothelial growth factor” (THE HOSPITAL FOR SICK CHILDREN, priority 2002, published 2006)

Tests used:
HUVEC = assay: Inhibition of HUVEC growth by CR-4 induced VEGF depleted media of breast cancer cell lines ([3H]-Thymidine incorporation); assay type: cell-based, human; conditions: FIG. 5
Protocol: CR-4 dependent inhibition of VEGF secretion results in the inhibition of HUVEC growth.
After an incubation for 5 hrs. with various concentrations of CR-4 the wells were washed twice and fresh HUVEC medium was added for 24 hrs. This medium with or without 10 ng/ml of recombinant VEGF was then transferred to parallel wells containing 10^5 cells/ml of HUVEC that were plated and grown in HUVEC medium for 24 hrs. Radioactive labelled [^3H]-Thymidine was added to HUVEC wells over night. Cells were harvested and their [^3H]-Thymidine incorporation was measured.

[1] = CR-4 dependent inhibition of VEGF secretion from cell lines (VEGF-165 ELISA of medium); assay type: cell-based; conditions: Homo sapiens; all cell lines; 10^6 cells/ml incubated 5 hrs with compound, washed, fresh medium 24 hrs; FIGS. 1 to 4
Protocol: VEGF secretion from the breast cancer cell lines HTB-133 (KDR+), HTB-131 (KDR−) and MDA-231, HTB-181 prostate cancer cell line, HTB-72 melanoma cell line, CR2-1730 human umbilical vascular endothelial (HUV-EC-C) cell line and normal HUVEC primary cells was measured as follows.
Medium was collected and analysed for the presence of VEGF using VEGF-165 ELISA kit (R&D Systems).
CR-4 dependent inhibition of VEGF secretion from breast, prostate, melanoma and HUVEC cell lines.
10^6 cells/ml of each cell lines were incubated for 5 hrs. with various concentrations of CR-4. Cells were washed twice in PBS to remove CR4 and fresh medium was added for 24 hrs. Medium was collected and analysed for the presence of VEGF using VEGF-165 ELISA kit (R&D Systems).

[2] = tested on: VEGF secretion from HTB-133 and MDA-231 cells; assay: CR11 and CR19 dependent inhibition of VEGF secretion from breast cancer cell lines (VEGF-165 ELISA of medium); assay type: cell-based; conditions: Homo sapiens, MDA-MB-231, 10^6 cells/ml incubated 5 hours with compound, washed, fresh medium 24 hours, FIGS. 6 and 7
Protocol: CR11 and CR19 dependent inhibition of VEGF secretion from breast cancer cell lines.
Procedure: 10^6 cells/ml of each of HTB-133 and MDA-231 cells were incubated for 5 hours with various concentrations of CR11 or CR19. Cells were washed twice in PBS to remove CR11 and CR19 and fresh medium was added for 24 hours. Medium was collected and analysed for the presence of VEGF using VEGF-165 ELISA kit (R&D Systems).

| IC50 [1] | IC50 [2] | Structure (SMILES) | Effect of recombinant VEGF on the inhibition of HUVEC growth (HUVEC; 10 ng/ml recombinant VEGF added to the conditioned medium) | IC50 (HUVEC; Homo sapiens, medium of HTB-133 (KDR+) and HTB-131 (KDR-) cells treated 5 hrs with compound, transferred to HUVEC, [3H]-Thymidine incorporation) |
| --- | --- | --- | --- | --- |
| 10 to 30 nM |  | N#C/C(=C\C=C\c1ccc(O)c(O)c1)C(=O)NCc1ccccc1 [CR4, (E,E)-2-(Benzylaminocarbonyl)-3-(3,4-dihydroxystyryl)acrylonitrile] | rescued by recombinant VEGF | 20 to 30 nM |
|  | ~30 nM | COc1cc(/C=C/C=C(\C#N)C(=O)NCc2ccc(O)c(O)c2)cc(OC)c1O [CR11, (E,E)-2-(3,4-Dihydroxybenzylaminocarbonyl)-3-(3,5-dimethoxy-4-hydroxystyryl)acrylonitrile] |  |  |
|  | ~30 nM | N#C/C(=C\C=C\c1ccccc1)C(=O)NCc1ccc(O)c(O)c1 [CR19, (E,E)-2-(3,4 Dihydroxybenzylaminocarbonyl)-3-styrylacrylonitrile] |  |  |
